# Where “and” joins values, the source holds several entries; their conditions need not be identical. Equal values may be shown once. Where a name gives a salt, the structure may show the parent alone. Read-outs that look alike come from different tables or passages of the source.
# How the values were obtained:
# [1] = test system: SUDHL5; test: Induction of caspase-3/7 activity (Caspase-Glo 3/7), SUDHL5; format: cell-based; conditions: caspase-3/7 induction, SUDHL5 cells, 3 h treatment, median
# Summary of the method: (§1)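 Caspase-Glo 3/7 luminescence, 3 h compound exposure, 37 °C, humidified. Minus medium-only blank. EC50 fit: C0=1, plateau = reference max induction.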
# [2] = test system: SUDHL10; test: Induction of cytotoxicity (CellTiter-Glo, 5 h), SUDHL10
# [3] = test system: SUDHL10; test: Induction of caspase-3/7 activity (Caspase-Glo 3/7), SUDHL10; format: cell-based; conditions: caspase-3/7 induction, SUDHL10 cells, 3 h treatment, median
# Summary of the method: as §1
# [4] = test system: SUDHL5; test: Induction of cytotoxicity (CellTiter-Glo, 5 h), SUDHL5
# [5] = test system: SUDHL10; test: Anti-proliferative effect (CellTiter-Glo, 72 h), SUDHL10; format: cell-based; conditions: SUDHL10 cells, antiproliferation, median, read-out: Antiproli SUDHL10 [M] (median)
# Summary of the method: (§2)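 CTG luminescence read-out after 72 h compound exposure, 37 °C, humidified. Time-zero reference plate read at plating.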
# [6] = target: MCL-1 (Homo sapiens, UniProt Q07820); test: Protein-protein interaction assay MCL-1/Noxa BH3 peptide (MCL-1 assay), TR-FRET; format: binding; conditions: MBP-MCL-1 / Noxa BH3-derived peptide, median
# Summary of the method: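 Displacement of the biotinylated Noxa BH3 peptide from MBP-tagged human MCL-1 (1 nM) is detected by time-resolved FRET. Compounds are tested in duplicate across eleven concentrations up to 20 μM, incubated 1 h at 22 °C and overnight at 4 °C, and IC50 is fitted with a four-parameter equation.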
# [7] = test system: SUDHL5; test: Anti-proliferative effect (CellTiter-Glo, 72 h), SUDHL5; format: cell-based; conditions: SUDHL5 cells, antiproliferation, median, read-out: Antiproli SUDHL5 [M] (median)
# Summary of the method: as §2
# [8] = test system: A2780; test: Anti-proliferative effect (CellTiter-Glo, 72 h), A2780; format: cell-based; conditions: A2780 cells, median, read-out: IC50 antiproliferation assay A2780 [M] (median)
# Summary of the method: as §2
# [9] = read-out: Cytotox SUDHL10 [M] (median), SUDHL10 cells, cytotoxicity induction, CellTiter-Glo, 5 h incubation, median
# [10] = read-out: Cytotox SUDHL5 [M] (median), SUDHL5 cells, cytotoxicity induction, CellTiter-Glo, 5 h incubation, median
# [11] = Homo sapiens, SU-DHL10, 72 h, 72 h incubation
# [12] = Homo sapiens, SU-DHL-5, 72 h, 72 h incubation
# [13] = Homo sapiens, SU-DHL10, 5 h, read-out: Cytotox SUDHL10 [M] (median), SUDHL10 cells, cytotoxicity induction, CellTiter-Glo, 5 h incubation, median
# [14] = Homo sapiens, SU-DHL-5, 5 h, read-out: Cytotox SUDHL5 [M] (median), SUDHL5 cells, cytotoxicity induction, CellTiter-Glo, 5 h incubation, median
# [15] = Homo sapiens, SU-DHL10, 5 h, read-out: Cytotox SUDHL10 [M] (median), SUDHL10 cells, cytotoxicity induction, CellTiter-Glo, 5 h, median
# [16] = Homo sapiens, SU-DHL-5, 5 h, read-out: Cytotox SUDHL5 [M] (median), SUDHL5 cells, cytotoxicity induction, CellTiter-Glo, 5 h, median
# [17] = Homo sapiens, SU-DHL10, 72 h, 72 h
# [18] = Homo sapiens, SU-DHL-5, 72 h, 72 h
# Sequence of MCL-1 (Q07820 whole entry): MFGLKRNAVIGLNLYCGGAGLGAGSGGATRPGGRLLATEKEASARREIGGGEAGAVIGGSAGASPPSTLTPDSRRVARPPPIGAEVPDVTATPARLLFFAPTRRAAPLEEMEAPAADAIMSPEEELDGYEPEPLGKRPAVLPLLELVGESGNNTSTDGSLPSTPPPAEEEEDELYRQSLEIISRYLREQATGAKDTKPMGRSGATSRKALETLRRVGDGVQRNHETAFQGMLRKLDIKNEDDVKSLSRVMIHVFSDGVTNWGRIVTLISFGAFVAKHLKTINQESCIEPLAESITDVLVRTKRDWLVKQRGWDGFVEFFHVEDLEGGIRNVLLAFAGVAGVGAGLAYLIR
EC50 [1] [µM],EC50 [3] [µM],"IC50 [5, 11] [M]",IC50 [6] [µM],IC50 ([7]; 72 h incubation) [M],"IC50 ([8]; Homo sapiens, A2780, 72 h) [M]","IC50 [7, 12] [M]","EC50 ([1]; Homo sapiens, SU-DHL-5, 3 h) [µM]","EC50 ([3]; Homo sapiens, SU-DHL10, 3 h) [µM]",IC50 ([5]; 72 h incubation),SMILES,"IC50 [2, 9] [M]","IC50 [4, 10] [M]",also measured
2.66,8.71,7.52e-06,0.00298,4.28e-06,> 3.3e-05,,,,,"COCCn1nc(C2CC2)c2c1COCCCCn1c(C(=O)O)c(CCCOc3cccc4ccccc34)c3cccc-2c31 (single isomer, unassigned; enantiomer 1) [Example 103, 3-cyclopropyl-1-(2-methoxyethyl)-7-[3-(naphthalen-1-yloxy)propyl]-1,10,11,12,13,15-hexahydropyrazolo[4′,3′:9,10][1,6]oxazacycloundecino[8,7,6-hi]indole-8-carboxylic acid-N-ethylethanamine Salt (Enantiomer 1)]",8.83e-06,3.55e-06,IC50 [8]: 2.72e-05 M
4.73,12.5,1.89e-05,0.00523,,2.25e-05,8.25e-06,,,,"CCc1c2c(nn1C)CN(C)CCCn1c(C(=O)O)c(CCCOc3cccc4ccccc34)c3cccc-2c31 (single isomer, unassigned; enantiomer 1) [Example 142, 11-Ethyl-7,10-dimethyl-1-[3-(1-naphthyloxy)propyl]-4,5,6,7,8,10-hexahydropyrazolo[3′,4′:7,8][1,5]diazecino[9,10,1-hi]indole-2-carboxylic acid-N-ethylethanamine Salt (Enantiomer 1)]",1.34e-05,6.07e-06,
,,2.01e-05,0.0133,> 3.3e-06,> 3.3e-05,,27.5,> 33,,"Cn1nc(CCN2CCOCC2)c2c1COCCCCn1c(C(=O)O)c(CCCOc3cccc4ccccc34)c3cccc-2c31 (single isomer, unassigned; enantiomer 1) [Example 151, 1-methyl-3-[2-(morpholin-4-yl)ethyl]-7-[3-(naphthalen-1-yloxy)propyl]-1,10,11,12,13,15-hexahydropyrazolo[4′,3′:9,10][1,6]oxazacycloundecino[8,7,6-hi]indole-8-carboxylic acid-N-ethylethanamine Salt (Enantiomer 1)]",,,"IC50 [2, 13]: > 3.3e-05 M; IC50 [4, 14]: 1.91e-05 M"
,30,,0.0181,,> 3.3e-05,9.37e-06,12.8,> 33,> 3.3e-05 M and 2.21e-05 M,"COCc1nn(C)c2c1-c1cccc3c(CCCOc4cccc5ccccc45)c(C(=O)O)n(c13)CCCCCOC2 (single isomer, unassigned; enantiomer 1) [Example 178, 3-(methoxymethyl)-1-methyl-7-[3-(naphthalen-1-yloxy)propyl]-1,11,12,13,14,16-hexahydro-1 OH-pyrazolo[3′,4′:3,4][1,7]oxazacyclododecino[5,6,7-h]indole-8-carboxylic acid-N-ethylethanamine Salt (Enantiomer 1)]",,,"IC50 [2, 13]: > 3.3e-05 M; IC50 [4, 14]: 1.3e-05 M"
2.82,7.76,,0.00146,3.39e-06,2.42e-05,,,,9.83e-06 M,"CCCc1nn(C)c2c1-c1c(C)ccc3c(CCCOc4cccc5ccccc45)c(C(=O)O)n(c13)CCCCOC2 (single isomer, unassigned; enantiomer 1) [Example 188, 1,4-dimethyl-7-[3-(naphthalen-1-yloxy)propyl]-3-propyl-1,10,11,12,13,15-hexahydropyrazolo[4′,3′:9,10][1,6]oxazacycloundecino[8,7,6-hi]indole-8-carboxylic acid-N-ethylethanamine Salt (Enantiomer 1)]",6.61e-06,2.95e-06,
5.09,15.1,,0.00735,,1.82e-05,7.95e-06,,,6.28e-06 M,"Cn1nc2c(c1C(F)(F)F)-c1cccc3c(CCCOc4cccc5ccccc45)c(C(=O)O)n(c13)CCCCOC2 (single isomer, unassigned; enantiomer 1) [Example 194, 2-methyl-7-[3-(naphthalen-1-yloxy)propyl]-3-(trifluoromethyl)-2,10,11,12,13,15-hexahydropyrazolo[4′,3′:9,10][1,6]oxazacycloundecino[8,7,6-hi]indole-8-carboxylic Acid (Enantiomer 1)]",1.63e-05,5.46e-06,
30.2,> 33,,0.0462,2.52e-05,3.17e-05,,,,1.74e-05 M,"CCc1c2c(nn1CCN1CCOCC1)COCCCCn1c(C(=O)O)c(CCCOc3cccc4ccccc34)c3cccc-2c31 (single isomer, unassigned; enantiomer 1) [Example 202, 3-ethyl-2-[2-(morpholin-4-yl)ethyl]-7-[3-(naphthalen-1-yloxy)propyl]-2,10,11,12,13,15-hexahydropyrazolo[4′,3′:9,10][1,6]oxazacycloundecino[8,7,6,6-hi]indole-8-carboxylic Acid (Enantiomer 1)]",2.87e-05,> 3.3e-05,
,,,1.08,,> 3.3e-05,,> 33,> 33,,"Cn1nc(COc2ccc(NS(C)(=O)=O)cc2)c2c1COCCCCn1c(C(=O)O)c(CCCOc3cccc4ccccc34)c3cccc-2c31 (single isomer, unassigned; enantiomer 1) [Example 322, 1-methyl-3-({4-[((methylsulfonyl)amino]phenoxy}methyl)-7-[3-(naphthalen-1-yloxy)propyl]-1,10,11,12,13,15-hexahydropyrazolo[4′,3′:9,10][1,6]oxazacycloundecino[8,7,6-hi]indole-8-carboxylic Acid-N-ethylethanamine Salt (Enantiomer 1)]",,,"IC50 [2, 15]: > 3.3e-05 M; IC50 [4, 16]: > 3.3e-05 M; IC50 [5, 17]: 1.9e-05 M; IC50 [7, 18]: 2.46e-05 M"
,,,0.515,,> 3.3e-05,,> 33,> 33,,"Cn1nc(CN2CCCCC2=O)c2c1COCCCCn1c(C(=O)O)c(CCCOc3cccc4ccccc34)c3cccc-2c31 (single isomer, unassigned; enantiomer 1) [Example 326, 1-methyl-7-[3-(naphthalen-1-yloxy)propyl]-3-[(2-oxopiperidin-1-yl)methyl]-1,10,11,12,13,15-hexahydropyrazolo[4′,3′:9,10][1,6]oxazacycloundecino[8,7,6-hi]indole-carboxylic Acid (Enantiomer 1)]",,,"IC50 [2, 15]: > 3.3e-05 M; IC50 [4, 16]: > 3.3e-05 M; IC50 [5, 17]: 1.14e-05 M; IC50 [7, 18]: 3.18e-05 M"
> 33,> 33,,0.153,,,,,,,"Cn1nc(CN2CCCC2=O)c2c1COCCCCn1c(C(=O)O)c(CCCOc3cccc4ccccc34)c3cccc-2c31 (single isomer, unassigned; enantiomer 1) [Example 330, 1-methyl-7-[3-(naphthalen-1-yloxy)propyl]-3-[(2-oxopyrrolidin-1-yl)methyl]-1,10,11,12,13,15-hexahydropyrazolo[4′,3′:9,10][1,6]oxazacycloundecino[8,7,6-hi]indole-8-carboxylic Acid (Enantiomer 1)]",,,"IC50 ([2]; read-out: Cytotox SUDHL10 [M] (median), SUDHL10 cells, cytotoxicity induction, CellTiter-Glo, 5 h, median): > 3.3e-05 M; IC50 ([4]; read-out: Cytotox SUDHL5 [M] (median), SUDHL5 cells, cytotoxicity induction, CellTiter-Glo, 5 h, median): > 3.3e-05 M; IC50 ([5]; 72 h): 2.49e-05 M; IC50 ([7]; 72 h): > 3.3e-05 M; IC50 [8]: > 3.3e-05 M"

# — patent publication US10981932B2, “Macrocyclic indole derivatives” (Bayer Aktiengesellschaft, priority 2016, dated 2021)
